Like-named read-outs stand apart in the source and are kept apart here.
How the values were obtained:
Format in all cases: in vivo
soybean (Glycine max) = assay: Test D pre-/postemergence plant response; details: Glycine max, pre-emergence, Preemergence, scale 0 to 100 (0 no effect, 100 complete control), read-out: Plant response rating, Soybean
In short: (§1)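 Sown seed (loam/sand soil) treated preemergence; emerged plants, 1- to 4-leaf stage and 2 to 18 cm, treated postemergence in peat/vermiculite medium. Greenhouse incubation 13–15 d. Endpoint: visual 0–100 rating versus untreated.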

[1] = tested on: large (Lg) crabgrass (Digitaria sanguinalis); assay: Test D pre-/postemergence plant response; details: Digitaria sanguinalis; for pest or weed control at 16 g/ha: 16 g ai/ha; for pest or weed control at 31 g/ha: 31 g ai/ha; for pest or weed control at 62 g/ha: 62 g ai/ha; for pest or weed control at 125 g/ha: 125 g ai/ha
In short: as §1

[2] = tested on: yellow nutsedge (Cyperus esculentus); assay: Test D pre-/postemergence plant response; details: Cyperus; for pest or weed control at 16 g/ha: 16 g ai/ha; for pest or weed control at 31 g/ha: 31 g ai/ha; for pest or weed control at 62 g/ha: 62 g ai/ha; for pest or weed control at 125 g/ha: 125 g ai/ha
In short: as §1

[3] = tested on: waterhemp (common waterhemp, Amaranthus rudis); assay: Test D pre-/postemergence plant response; details: Amaranthus tuberculatus; for pest or weed control at 16 g/ha: 16 g ai/ha; for pest or weed control at 31 g/ha: 31 g ai/ha; for pest or weed control at 62 g/ha: 62 g ai/ha; for pest or weed control at 125 g/ha: 125 g ai/ha
In short: as §1

[4] = tested on: lambsquarters (Chenopodium album); assay: Test D pre-/postemergence plant response; details: Chenopodium album; for pest or weed control at 16 g/ha: 16 g ai/ha; for pest or weed control at 31 g/ha: 31 g ai/ha; for pest or weed control at 62 g/ha: 62 g ai/ha; for pest or weed control at 125 g/ha: 125 g ai/ha
In short: as §1

[5] = tested on: wheat (Triticum aestivum); assay: Test B pre-/postemergence plant response; details: Triticum aestivum, 240 h, read-out: Plant response rating, Wheat; for plant injury at 125 g/ha: 125 g ai/ha; for plant injury at 500 g/ha: 500 g ai/ha
In short: (§2)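 Greenhouse pots, loam/sand soil; compound formulated with surfactant in non-phytotoxic solvent. Preemergence soil spray and postemergence spray at 1–2 leaf stage run simultaneously. Visual injury, 0–100, about 10 days post-treatment.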

corn (Zea mays) = assay: Test B pre-/postemergence plant response; details: Zea mays, 240 h; for Corn plant response rating (crop injury, 0 = no effect, 100 = complete kill) at 125 g/ha: 125 g ai/ha; for Corn plant response rating (crop injury, 0 = no effect, 100 = complete kill) at 500 g/ha: 500 g ai/ha
In short: as §2

[6] = tested on: pigweed (Amaranthus retroflexus); assay: Test B pre-/postemergence plant response; details: Amaranthus retroflexus, 240 h, read-out: Plant response rating, Pigweed; for pest or weed control at 125 g/ha: 125 g ai/ha; for pest or weed control at 500 g/ha: 500 g ai/ha
In short: as §2

[7] = tested on: barnyardgrass (Echinochloa crus-galli); assay: Test B pre-/postemergence plant response; details: Echinochloa crus-galli, 240 h, read-out: Plant response rating, Barnyardgrass; for pest or weed control at 125 g/ha: 125 g ai/ha; for pest or weed control at 500 g/ha: 500 g ai/ha
In short: as §2

[8] = tested on: giant foxtail (Setaria faberii); assay: Test B pre-/postemergence plant response; details: Setaria faberi, 240 h, read-out: Plant response rating, Foxtail, Giant; for pest or weed control at 125 g/ha: 125 g ai/ha; for pest or weed control at 500 g/ha: 500 g ai/ha
In short: as §2

[9] = post-emergence, Postemergence, scale 0 to 100 (0 no effect, 100 complete control), read-out: Crabgrass, Large plant response rating
[10] = post-emergence, Postemergence, scale 0 to 100, 0 no effect, 100 complete control, read-out: Plant response rating, Crabgrass, Large
[11] = pre-emergence, Preemergence, scale 0 to 100 (0 no effect, 100 complete control), read-out: Plant response rating, Crabgrass, Large
[12] = post-emergence, Postemergence, scale 0 to 100 (0 no effect, 100 complete control), read-out: Nutsedge, Yellow plant response rating
[13] = post-emergence, Postemergence, scale 0 to 100, 0 no effect, 100 complete control, read-out: Plant response rating, Nutsedge, Yellow
[14] = pre-emergence, Preemergence, scale 0 to 100 (0 no effect, 100 complete control), read-out: Plant response rating, Nutsedge, Yellow
[15] = post-emergence, Postemergence, scale 0 to 100 (0 no effect, 100 complete control), read-out: Waterhemp plant response rating
[16] = post-emergence, Postemergence, scale 0 to 100, 0 no effect, 100 complete control, read-out: Plant response rating, Waterhemp
[17] = pre-emergence, Preemergence, scale 0 to 100 (0 no effect, 100 complete control), read-out: Plant response rating, Waterhemp
[18] = post-emergence, Postemergence, scale 0 to 100 (0 no effect, 100 complete control), read-out: Lambsquarters plant response rating
[19] = post-emergence, Postemergence, scale 0 to 100, 0 no effect, 100 complete control, read-out: Plant response rating, Lambsquarters
[20] = pre-emergence, Preemergence, scale 0 to 100 (0 no effect, 100 complete control), read-out: Plant response rating, Lambsquarters
[21] = post-emergence, postemergence, 0 to 100 scale, 0 no effect, 100 complete control
[22] = post-emergence, Postemergence, 0 to 100 scale (0 no effect, 100 complete control)
[23] = pre-emergence, Preemergence, 0 to 100 scale where 0 is no effect and 100 is complete control

`FC(F)(F)c1cc(-c2ccccc2Oc2ncc(Cl)cn2)on1` [Compound 63, 5-chloro-2-[2-[3-(trifluoromethyl)-5-isoxazolyl]phenoxy]pyrimidine] was tested, and the plant injury at 31 g/ha (soybean (Glycine max); 31 g ai/ha) was 15%, the plant injury at 62 g/ha (soybean (Glycine max); 62 g ai/ha) was 45% and the pest or weed control at 16 g/ha [1, 9] was 5%. The pest or weed control at 31 g/ha [1, 9] was 5%, the pest or weed control at 62 g/ha [1, 10] was 10% and the pest or weed control at 125 g/ha [1, 10] was 35%. For the same compound, the pest or weed control at 125 g/ha ([1]; pre-emergence, Preemergence, read-out: Plant response rating (scale 0 to 100), Crabgrass, Large) was 100%, the pest or weed control at 16 g/ha [1, 11] was 65% and the pest or weed control at 31 g/ha [1, 11] was 98%. It also gave a pest or weed control at 62 g/ha [1, 11] of 98%, a pest or weed control at 16 g/ha [2, 12] of 0% and a pest or weed control at 31 g/ha [2, 12] of 0%. It also gave a pest or weed control at 62 g/ha [2, 13] of 5%, a pest or weed control at 125 g/ha [2, 13] of 5% and a pest or weed control at 125 g/ha ([2]; pre-emergence, Preemergence, read-out: Plant response rating (scale 0 to 100), Nutsedge, Yellow) of 5%. It also gave a pest or weed control at 16 g/ha [2, 14] of 0%, a pest or weed control at 31 g/ha [2, 14] of 0% and a pest or weed control at 62 g/ha [2, 14] of 0%. For the same compound, the pest or weed control at 16 g/ha [3, 15] was 85%, the pest or weed control at 31 g/ha [3, 15] was 85% and the pest or weed control at 62 g/ha [3, 16] was 98%. The pest or weed control at 125 g/ha [3, 16] was 98%, the pest or weed control at 125 g/ha ([3]; pre-emergence, Preemergence, read-out: Plant response rating (scale 0 to 100), Waterhemp) was 100% and the pest or weed control at 16 g/ha [3, 17] was 90%. It also gave a pest or weed control at 31 g/ha [3, 17] of 100%, a pest or weed control at 62 g/ha [3, 17] of 100% and a pest or weed control at 16 g/ha [4, 18] of 10%. For the same compound, the pest or weed control at 31 g/ha [4, 18] was 70%, the pest or weed control at 62 g/ha [4, 19] was 85% and the pest or weed control at 125 g/ha [4, 19] was 90%. The pest or weed control at 125 g/ha ([4]; pre-emergence, Preemergence, read-out: Plant response rating (scale 0 to 100), Lambsquarters) was 95%, the pest or weed control at 16 g/ha [4, 20] was 95% and the pest or weed control at 31 g/ha [4, 20] was 90%. The pest or weed control at 62 g/ha [4, 20] was 90%, the plant injury at 125 g/ha [5, 21] was 0% and the plant injury at 500 g/ha [5, 22] was 50%. The plant injury at 125 g/ha [5, 23] was 20%, the plant injury at 500 g/ha [5, 23] was 40% and the Corn plant response rating (crop injury, 0 = no effect, 100 = complete kill) at 125 g/ha (corn (Zea mays); [21]) was 20%. For the same compound, the Corn plant response rating (crop injury, 0 = no effect, 100 = complete kill) at 500 g/ha (corn (Zea mays); [22]) was 20%, the Corn plant response rating (crop injury, 0 = no effect, 100 = complete kill) at 125 g/ha (corn (Zea mays); [23]) was 10% and the Corn plant response rating (crop injury, 0 = no effect, 100 = complete kill) at 500 g/ha (corn (Zea mays); [23]) was 30%. The pest or weed control at 125 g/ha [6, 21] was 100%, the pest or weed control at 500 g/ha [6, 22] was 100% and the pest or weed control at 125 g/ha [6, 23] was 100%. For the same compound, the pest or weed control at 500 g/ha [6, 23] was 100%, the pest or weed control at 125 g/ha [7, 21] was 80% and the pest or weed control at 500 g/ha [7, 22] was 100%. It also gave a pest or weed control at 125 g/ha [7, 23] of 90%, a pest or weed control at 500 g/ha [7, 23] of 100% and a pest or weed control at 125 g/ha [8, 21] of 70%. It also gave a pest or weed control at 500 g/ha [8, 22] of 80%, a pest or weed control at 125 g/ha [8, 23] of 100% and a pest or weed control at 500 g/ha [8, 23] of 100%.

— patent publication US10131652B2, “Pyrimidinyloxy benzene derivatives as herbicides” (E. I. DU PONT DE NEMOURS AND COMPANY, priority 2014, dated 2018)
